Results from BigSolDB 2.1.

C[C@H]1[C@H](C)CC[C@]2(C(=O)O[C@@H]3O[C@H](CO[C@@H]4O[C@H](CO)[C@@H](O[C@@H]5O[C@@H](C)[C@H](O)[C@@H](O)[C@H]5O)[C@H](O)[C@H]4O)[C@@H](O)[C@H](O)[C@H]3O)CC[C@]3(C)C(=CC[C@@H]4[C@@]5(C)C[C@@H](O)[C@H](O)[C@@](C)(CO)[C@@H]5CC[C@]43C)[C@H]12
solubility (mole fraction)
Conditions	in ethanol	in methanol	in n-butanol	in n-propanol	in water
278.15 K	–	0.000902	–	–	–
283.15 K	–	0.000904	–	–	–
288.15 K	–	0.000973	–	–	–
293.15 K	–	0.00103	–	–	–
298.15 K	0.00014	0.00113	2.44e-05	5.2e-05	1.9e-06
303.15 K	0.000142	0.00122	2.93e-05	6.06e-05	2.1e-06
308.15 K	0.000146	0.00139	3.45e-05	6.78e-05	2.5e-06
313.15 K	0.000152	0.0016	4.22e-05	8.06e-05	3.1e-06
318.15 K	0.000165	0.00182	5.1e-05	9.61e-05	4.2e-06
323.15 K	0.000176	0.00216	6.36e-05	0.000119	5.4e-06
328.15 K	0.000195	0.00253	8.03e-05	0.000144	7.1e-06
333.15 K	0.000217	–	0.000101	0.000181	1.02e-05
338.15 K	–	–	0.000132	0.00023	–
343.15 K	–	–	0.000175	0.000304	–
